Reference: ChEMBL document CHEMBL3232855, “The discovery of N-((2H-tetrazol-5-yl)methyl)-4-((R)-1-((5r,8R)-8-(tert-butyl)-3-(3,5-dichlorophenyl)-2-oxo-1,4-diazaspiro[4.5]dec-3-en-1-yl)-4,4-dimethylpentyl)benzamide (SCH 900822): a potent and selective glucagon receptor antagonist” (J Med Chem, 2014)

What was measured:
[1] = molecular target: Kappa-type opioid receptor (Homo sapiens) (UniProt P41145); assay: Binding affinity to kappa opioid receptor (unknown origin) at 10 uM by agonist displacement assay relative to control
Chain of Kappa-type opioid receptor (Homo sapiens) (P41145 whole entry): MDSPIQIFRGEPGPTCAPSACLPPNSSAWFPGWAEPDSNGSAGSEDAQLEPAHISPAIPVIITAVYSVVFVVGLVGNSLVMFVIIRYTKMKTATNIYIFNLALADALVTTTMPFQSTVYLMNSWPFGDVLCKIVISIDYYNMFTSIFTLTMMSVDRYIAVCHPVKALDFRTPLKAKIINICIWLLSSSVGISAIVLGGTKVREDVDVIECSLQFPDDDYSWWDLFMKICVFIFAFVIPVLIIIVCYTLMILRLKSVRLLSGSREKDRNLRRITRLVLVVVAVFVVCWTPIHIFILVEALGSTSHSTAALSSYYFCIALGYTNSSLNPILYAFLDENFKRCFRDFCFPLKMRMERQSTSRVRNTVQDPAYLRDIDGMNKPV

Glucagon receptor = Glucagon receptor (Homo sapiens, UniProt P47871); assay: biochemical; type: cell-based, CHO
Chain of Glucagon receptor (P47871 whole entry): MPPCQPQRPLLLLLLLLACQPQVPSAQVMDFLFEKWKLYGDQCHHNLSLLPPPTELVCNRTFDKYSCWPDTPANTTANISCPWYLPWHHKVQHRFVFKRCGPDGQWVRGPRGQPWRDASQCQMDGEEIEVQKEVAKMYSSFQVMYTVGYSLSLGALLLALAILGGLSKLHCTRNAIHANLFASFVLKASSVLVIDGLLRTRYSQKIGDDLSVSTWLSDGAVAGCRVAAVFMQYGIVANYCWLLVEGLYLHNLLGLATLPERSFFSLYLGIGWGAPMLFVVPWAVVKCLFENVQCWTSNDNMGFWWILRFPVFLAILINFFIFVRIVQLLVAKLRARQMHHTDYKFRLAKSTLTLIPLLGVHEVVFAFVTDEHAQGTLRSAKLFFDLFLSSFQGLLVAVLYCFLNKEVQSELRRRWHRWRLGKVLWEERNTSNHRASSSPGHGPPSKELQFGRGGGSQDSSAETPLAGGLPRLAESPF
Description: Displacement of [125I]-glucagon from recombinant human GCGR expressed in CHO cells after 60 mins by scintillation counting analysis

[2] = Half life in dog at 1 mg/kg, iv; type: ADME, organism-based, Canis lupus familiaris; set-up: dose 1 mg/kg, route intravenous; conditions: in vivo
Rattus norvegicus = assay: Dose-normalized AUC in rat at 3 mg/kg, po; type: ADME, organism-based; set-up: dose 3 mg/kg, route oral; conditions: in vivo
[3] = molecular target: T1, Gastric inhibitory polypeptide receptor (Homo sapiens, UniProt P48546); assay: Antagonist activity at human GIPR assessed as inhibition of cAMP production; type: functional
T1 sequence (P48546 whole entry): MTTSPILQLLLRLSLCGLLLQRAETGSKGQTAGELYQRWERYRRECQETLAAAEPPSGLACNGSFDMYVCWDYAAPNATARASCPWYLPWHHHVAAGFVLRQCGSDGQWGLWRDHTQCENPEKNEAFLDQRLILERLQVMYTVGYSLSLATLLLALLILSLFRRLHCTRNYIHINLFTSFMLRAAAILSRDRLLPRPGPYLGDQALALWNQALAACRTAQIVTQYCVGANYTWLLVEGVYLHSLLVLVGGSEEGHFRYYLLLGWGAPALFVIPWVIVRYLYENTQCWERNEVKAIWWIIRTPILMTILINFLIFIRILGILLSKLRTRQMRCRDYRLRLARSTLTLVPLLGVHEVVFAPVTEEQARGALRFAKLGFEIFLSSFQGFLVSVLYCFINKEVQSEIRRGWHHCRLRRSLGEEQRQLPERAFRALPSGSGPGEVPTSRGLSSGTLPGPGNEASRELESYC

[4] = Plasma concentration in streptozotocin-induced ICR mouse type-2 diabetic model at 30 mg/kg, po measured at 8 hrs by HPLC/MS/MS analysis; type: ADME, organism-based; set-up: dose 30 mg/kg, route oral
[5] = molecular target: T2, Adenosine receptor A3 (Homo sapiens) (UniProt P0DMS8); conditions: 10 uM
T2 sequence (whole entry): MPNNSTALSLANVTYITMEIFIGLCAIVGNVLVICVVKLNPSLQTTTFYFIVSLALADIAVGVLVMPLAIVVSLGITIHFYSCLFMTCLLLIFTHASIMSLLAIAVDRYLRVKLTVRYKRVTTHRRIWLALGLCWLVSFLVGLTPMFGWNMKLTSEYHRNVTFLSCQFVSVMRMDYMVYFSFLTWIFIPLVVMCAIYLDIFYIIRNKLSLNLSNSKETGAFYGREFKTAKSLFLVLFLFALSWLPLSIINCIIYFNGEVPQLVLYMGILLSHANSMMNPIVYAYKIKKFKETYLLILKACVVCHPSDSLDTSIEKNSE
Description: Binding affinity to adenosine A3 receptor (unknown origin) at 10 uM by agonist displacement assay relative to control

## CC(C)(C)CC[C@H](c1ccc(C(=O)NCc2nn[nH]n2)cc1)N1C(=O)C(c2cc(Cl)cc(Cl)c2)=N[C@]12CC[C@@H](C(C)(C)C)CC2
[1]
  inhibition: 75%
Glucagon receptor
  IC50: 0.024 µM
[2]
  half-life: 6.1 h
Rattus norvegicus
  AUC/dose: 2.2 µM·h/mg/kg
[3]
  IC50: 2.1 µM
[4]
  concentration at 8 h: 8.5 µM
[5]
  inhibition: 96%
